{"source": "patent US20030228607A1", "about": "“Screening method and modulators having an improved therapeutic profile” (priority 2002, published 2003)", "target": "T1, LXRα and LXRβ (Homo sapiens, UniProt P55055+Q13133)", "T1 construct": "made in house", "T1 sequence (Q13133 188-447 limits assumed)": "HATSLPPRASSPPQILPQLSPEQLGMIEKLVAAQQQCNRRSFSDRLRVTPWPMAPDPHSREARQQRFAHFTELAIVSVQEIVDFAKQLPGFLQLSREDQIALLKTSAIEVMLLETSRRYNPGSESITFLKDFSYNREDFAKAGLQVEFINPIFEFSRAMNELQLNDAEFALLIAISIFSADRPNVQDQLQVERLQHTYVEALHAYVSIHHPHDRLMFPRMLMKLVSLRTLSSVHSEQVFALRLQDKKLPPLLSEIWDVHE", "T1 sequence (P55055 197-460 limits assumed)": "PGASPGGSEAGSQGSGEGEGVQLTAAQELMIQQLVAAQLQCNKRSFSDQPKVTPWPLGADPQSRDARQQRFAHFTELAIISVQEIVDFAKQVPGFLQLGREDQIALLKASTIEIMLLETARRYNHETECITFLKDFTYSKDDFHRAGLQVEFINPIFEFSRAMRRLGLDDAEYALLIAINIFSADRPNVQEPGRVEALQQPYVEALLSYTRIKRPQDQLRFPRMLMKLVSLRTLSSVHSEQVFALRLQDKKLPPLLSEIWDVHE", "T1 sequence (Q15788 676-700 partner limits assumed)": "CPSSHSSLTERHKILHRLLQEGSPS", "experiment": "High throughput FRET co-activator (SRC-1) recruitment assay, multiplexed", "type": "biochemical", "details": "10 uM, positive control; negative control DMSO around 0", "procedure": "FIG. 9. is a scatter plot of a co-activator recruitment assay showing fluorescence emitted from APC at 665 nm in a FRET based (biochemical) co-factor recruitment assay that detects the binding of the SCR-1 co-activator to […]. In this assay, recruitment of SCR-1 to both LXRα and LXRβ were simultaneously assayed.\nHigh through FRET cofactor interaction assays were performed in 96 or 384 well assay well plates using automated liquid handling and analysis. Screens for LXR were performed using the protocol below. Equivalent screens for FXR were performed using the FXR (SEQ.ID. No. 4) ligand binding domain in place of LXRα and LXRβ LBD and at a concentration of 8 nM per well.\n1. Partially purified recombinant protein comprising glutathione-S-transferase fused in frame to the LXR-ligand binding domain (comprising amino acids 188-447 of human LXRα (SEQ. ID. No. 6), or amino acids 198-461 of human LXRβ (SEQ. ID. No. 7)).\n2. Biotinylated peptide containing a SRC-1 receptor interaction motif(B-SRC-1) (SEQ. ID. No. 46).\n3. […]\nd) Plates were read using an LJL Analyst, or similar instrument, using the following conditions: Channel 1: The excitation wavelength was set to 330 nm, emitted light was collected at 615 nm, with 100 flashes per well, an integration time of 1000 μs; a 10 msec interval between flashes, and a delay after flashes of 200 μs. […]"}
{"smiles": "CC(C)CC[C@@H](O)[C@@H](C)[C@H]1CC[C@H]2[C@@H]3CC=C4C[C@@H](O)CC[C@]4(C)[C@H]3CC[C@]12C", "note": "[22-R-Hydroxy-Cholesterol]", "values": [{"measurement": "fluorescence emitted from APC at 665 nm (SRC-1 recruitment, Spotfire scale)", "value": "around 100"}]}
